Results taken from article PMC9126886, “Yeast-based directed-evolution for high-throughput structural stabilization of G protein-coupled receptors (GPCRs)” (Scientific Reports, 2022).

Key:
Assay in all cases: saturation binding of fluorescent ligand, flow cytometry, permeabilized yeast
Format in all cases: cell-based
Conditions in all cases: PBS, 1% DMSO, 22 °C, 1 h; apparent affinity; labelled compound (fluorescent ligand itself); no G protein
[1] = target: T1, A2aR (Homo sapiens, UniProt P29274, N34K)
T1 construct: gene ADORA2A; full-length receptor with C-terminus (positions to 412), N-terminal synthetic pre-pro leader, no eGFP; pYES2 (subcloned from pITy-MC-His10), permeabilized S. cerevisiae BY4741
T1 sequence (P29274 whole entry N34K): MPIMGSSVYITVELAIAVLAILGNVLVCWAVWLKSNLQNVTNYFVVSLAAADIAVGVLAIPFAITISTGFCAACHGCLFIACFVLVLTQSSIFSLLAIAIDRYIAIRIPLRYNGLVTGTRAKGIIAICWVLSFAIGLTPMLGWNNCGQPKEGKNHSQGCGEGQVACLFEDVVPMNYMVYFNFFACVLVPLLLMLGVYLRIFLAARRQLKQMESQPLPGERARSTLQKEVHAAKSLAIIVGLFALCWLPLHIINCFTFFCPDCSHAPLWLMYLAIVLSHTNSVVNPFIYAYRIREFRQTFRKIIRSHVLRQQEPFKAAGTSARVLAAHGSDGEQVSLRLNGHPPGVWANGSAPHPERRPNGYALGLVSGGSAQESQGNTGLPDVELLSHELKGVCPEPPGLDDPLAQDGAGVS
From the text: (§1) saturation binding of fluorescent ligand, flow cytometry, permeabilized yeast on A2aR

[2] = target: T2, A2aR (Homo sapiens, UniProt P29274)
T2 construct: gene ADORA2A; full-length receptor with C-terminus (positions to 412), N-terminal synthetic pre-pro leader, no eGFP; pYES2 (subcloned from pITy-MC-His10), permeabilized S. cerevisiae BY4741
T2 sequence (P29274 whole entry): as the sequence (P29274 whole entry N34K) above, with K34N counted along it
From the text: as §1

[3] = target: T3, A2aR (Homo sapiens, UniProt P29274, P313S/P354A)
T3 construct: gene ADORA2A; full-length receptor with C-terminus (positions to 412), N-terminal synthetic pre-pro leader, no eGFP; pYES2 (subcloned from pITy-MC-His10), permeabilized S. cerevisiae BY4741
T3 sequence (P29274 whole entry P313S/P354A): as the sequence (P29274 whole entry N34K) above, with K34N, P313S, P354A counted along it
From the text: as §1

logEC50 ± SE^c [1]: −7.78 ± 0.04 | logEC50 ± SE^c [2]: −8.01 ± 0.06 | logEC50 ± SE^c [3]: −8.90 ± 0.03
Substance: CA200623
